Data published in the supplement of paper PMC10307832.

Assays:
Assay in all cases: relative viability (nuclei count vs DMSO), 5 days (fraction); higher = more cells survive
Sunitinib + OSI-027 = compound: CCN(CC)CCNC(=O)c1c(C)[nH]c(/C=C2\C(=O)Nc3ccc(F)cc32)c1C [Sunitinib] + COc1cccc2cc(-c3nc([C@H]4CC[C@H](C(=O)O)CC4)n4ncnc(N)c34)[nH]c12 [OSI-027] (partner 0.5 µM)
Summary of the method: (§1)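 Lung cancer cell lines in 1536-well plates got either a single drug or a fixed anchor-drug dose together with five library-drug doses (not always all listed) in √10 steps, by pin tool, on the day after seeding. Nuclei were counted after 5 days, and relative viability is the treated-to-vehicle ratio of nuclei counts. Values are medians of duplicate plates.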

Sunitinib + Trametinib = compound: CCN(CC)CCNC(=O)c1c(C)[nH]c(/C=C2\C(=O)Nc3ccc(F)cc32)c1C [Sunitinib] + CC(=O)Nc1cccc(-n2c(=O)n(C3CC3)c(=O)c3c(Nc4ccc(I)cc4F)n(C)c(=O)c(C)c32)c1 [Trametinib] (partner 0.02 µM)
Summary of the method: as §1

Sunitinib + Phenformin = compound: CCN(CC)CCNC(=O)c1c(C)[nH]c(/C=C2\C(=O)Nc3ccc(F)cc32)c1C [Sunitinib] + N=C(N)NC(=N)NCCc1ccccc1 [Phenformin] (partner 250 µM)
Summary of the method: as §1

Sunitinib + Crizotinib = compound: CCN(CC)CCNC(=O)c1c(C)[nH]c(/C=C2\C(=O)Nc3ccc(F)cc32)c1C [Sunitinib] + C[C@@H](Oc1cc(-c2cnn(C3CCNCC3)c2)cnc1N)c1c(Cl)ccc(F)c1Cl [Crizotinib] (partner 1 µM)
Summary of the method: as §1

Cell Line	relative viability (Sunitinib + OSI-027; first compound 0.02 µM)	relative viability (Sunitinib + OSI-027; first compound 0.06325 µM)	relative viability (Sunitinib + OSI-027; first compound 0.6325 µM)	relative viability (Sunitinib + OSI-027; first compound 2 µM)	relative viability (Sunitinib + Trametinib; first compound 0.02 µM)	relative viability (Sunitinib + Trametinib; first compound 0.06325 µM)	relative viability (Sunitinib + Trametinib; first compound 0.2 µM)	relative viability (Sunitinib + Trametinib; first compound 0.6325 µM)	relative viability (Sunitinib + Trametinib; first compound 2 µM)	relative viability (Sunitinib + Phenformin; first compound 0.02 µM)	relative viability (Sunitinib + Phenformin; first compound 0.06325 µM)	relative viability (Sunitinib + Phenformin; first compound 0.2 µM)	relative viability (Sunitinib + Phenformin; first compound 0.6325 µM)	relative viability (Sunitinib + Phenformin; first compound 2 µM)	relative viability (Sunitinib + Crizotinib; first compound 0.02 µM)	relative viability (Sunitinib + Crizotinib; first compound 0.06325 µM)	relative viability (Sunitinib + Crizotinib; first compound 0.2 µM)	relative viability (Sunitinib + Crizotinib; first compound 0.6325 µM)	relative viability (Sunitinib + Crizotinib; first compound 2 µM)	relative viability (Sunitinib + OSI-027; first compound 0.2 µM)
NCI-H1437	0.873	0.918	0.855	0.885	0.478	0.539	0.611	0.607	0.537	0.362	0.314	0.321	0.297	0.323	0.979	0.959	1.09	0.909	0.899	
NCI-H1650	0.577	0.65	0.768	0.513	0.509	0.63	0.874	0.621	0.552	0.384	0.492	0.382	0.533	0.371	0.821	0.903	1.14	0.991	0.829	0.527
NCI-H1651	0.57		0.534	0.714	0.801		0.901		0.847	0.289	0.332	0.352	0.353	0.368	0.866	0.843	0.89	0.921	0.917	0.73
NCI-H1666	0.835	0.877	0.924	0.822	0.843	0.888	1.09	0.879	0.882	0.569	0.587	0.55	0.586	0.538	1.06	0.978	1.08	1.19	1.07	0.924
NCI-H1734	0.613	0.683	0.608	0.511	0.595	0.665	0.747	0.653	0.644	0.345	0.46	0.474	0.392	0.358	0.645	0.738	0.866	0.746	0.724	0.7
